Data as given in article PMC2911475 (Journal of molecular biology, 2009).

Target: FcsSBP (Fucose Solute Binding Protein)
Assay: isothermal titration calorimetry
Design: species or system Streptococcus pneumoniae
Details: 50 mM Tris HCl pH 7.5, 25 °C, one-site model

Row | Compound | Ka (crystal structure of SeMet protein) | Ka
1 | CC(=O)N[C@H]1[C@@H](O[C@H]2[C@@H](O)[C@@H](CO)OC(O)[C@@H]2O[C@@H]2O[C@@H](C)[C@@H](O)[C@@H](O)[C@@H]2O)O[C@H](CO)[C@H](O)[C@@H]1O (some centres unmarked) [A-trisaccharide, GalNAcα1–3(Fucα1–2)Gal] | 1.01 (±0.16) × 10^6 | 
2 | C[C@@H]1O[C@@H](O[C@H]2C(O)O[C@H](CO)[C@H](O)[C@@H]2O[C@H]2O[C@H](CO)[C@H](O)[C@H](O)[C@H]2O)[C@@H](O)[C@H](O)[C@@H]1O (some centres unmarked) [B-trisaccharide, Galα1–3(Fucα1–2)Gal] |  | 1.15 (±0.27) × 10^6
